Measured values as given in patent publication US9034576B2, “Systems and methods for measuring translation of target proteins in cells” (ANIMA CELL METROLOGY INC., priority 2009, dated 2015).

What was measured:
[1] = tested on: premature termination codons (PTC); conditions: genetic disorders with premature termination codons; Welch E M et al, Nature 2007; cited from earlier work
HEK cells = test: Live cell tRNA:tRNA FRET imaging before and after cycloheximide treatment; assay type: cell-based; conditions: HEK cells transfected with rhodamine 110 (donor) and Cy3 (acceptor) labeled bulk yeast tRNA; same cells imaged prior to and following treatment
Protocol: (§1) Fluorescent labeled tRNA were then introduced into live HEK-293, HeLa and CHO cells, employing a transfection protocol. One day prior to the transfection experiment, the cells were seeded on fibronectin-coated glass slides in a 24-well plate. On the following day, the growth medium was removed and 0.5 ml of fresh medium was added to each well containing the sub-confluent monolayers. 10 minutes later, 0.1 ml of the labeled-tRNA mixed with the transfection reagent and serum-free media were added to each well. The plate was incubated at 37° C. in a 5% CO2 incubator for 6-8 hr, followed by fixation with 4% paraformaldehyde for 20 min and mounting using fluorescent mounting medium. The fixed cells on glass slides were then visualized employing a spinning disk confocal microscope.
(§2) In order to determine the imaging parameters to be employed in the following experiments, including the degree of non-specific signal stemming from the cross-stimulation of different fluorophores, cells were transfected with donor only and with acceptor only, and imaged in the exact conditions employed for the FRET measurement. The calibration coefficients for computing the NFret (corrected FRET) image were NFret=FRET−0.011*donor−0.004*acceptor. […]

CHO cells = test: as above; assay type: cell-based; conditions: CHO cells transfected with rhodamine 110 (donor) and Cy3 (acceptor) labeled bulk yeast tRNA; same cells imaged prior to and following treatment
Protocol: as §1, §2

Which “amount of required protein produced” value [1] does the source give for O=C(O)c1cccc(-c2noc(-c3ccccc3F)n2)c1 [PTC124] here?
Its value is 1-5 % of normal concentrations.

What does the source list for C[C@@H]1C[C@@H]([C@H](O)CC2CC(=O)NC(=O)C2)C(=O)[C@@H](C)C1 [cycloheximide]?
FRET signal intensity (HEK cells): increase in FRET signal intensity; FRET signal intensity (CHO cells): increase in FRET signal intensity
